# Patent publication US11166954B2, “Dihydropyrimidine compound and preparation method and use thereof” (SICHUAN KELUN-BIOTECH BIOPHARMACEUTICAL CO., LTD., priority 2016, dated 2021)
# Key:
# [1] = system: hepatitis type B virus (HBV); assay: Inhibition of HBV DNA replication in HepG2.2.15 cells; assay type: cell-based; settings: HepG2.2.15, HBV DNA replication
# Procedure: The inhibitory effect of the compounds of the present invention on hepatitis type B virus (HBV) was tested. Cytotoxicity and effects on nucleic acid (DNA) replication level of the virus (HBV) of the compounds of the present invention were tested at a virus-cell level.
# HepG2.2.15 cells in the logarithmic growth phase were plated in a 96-well plate at a cell concentration of 40 cells per μL. The cells were incubated in a 5% CO2 incubator at 37° C. for 3 days; and the culture medium was replaced with a new one ([…]) before adding compounds. The concentration of the stock solution of each Example compound is 200 μM.
# [2] = Cytotoxicity detection (CellTiter-Glo); assay type: cell-based; settings: human, HepG2.2.15 cells, highest concentration 150 μM
# Procedure: The test compounds were diluted to 30 mM with DMSO, with 30 mM as the highest concentration, the compounds were subjected to three-fold serial dilution to various concentrations. 0.2 μL of the compounds at various concentrations were added to a 384-well plate, HepG2.2.15 cells having a concentration of 2000 cells per 50 μL were added to each well, and the highest concentration of the test compounds was 150 μM. 1 μL of DMSO was added to corresponding wells for control. The plate was incubated in a 5% CO2 incubator at 37° C. for 4 days; and 50 μL of CellTiter-Glo was added to each well after 4 days. The plate was read for detection, and a half cytotoxic concentration (CC50) was calculated.
# [3] = target: T1, hERG potassium ion channel (Homo sapiens, UniProt Q12809); assay: Predictor hERG Fluorescence Polarization Assay; assay type: binding; settings: hERG fluorescence polarization
# T1 construct: purchased
# From the text: In cardiac muscle cells, hERG (human Ether-a-go-go Related Gene) coded potassium channel mediates delayed rectifier potassium currents (IKr). IKr inhibition is the most important mechanism of QT interval prolongation caused by a drug.
# Employing the Predictor™ hERG Fluorescence Polarization Assay, the effect of the compounds on a hERG potassium ion channel was detected.
# [4] = In vivo pharmacokinetics (PK) in Beagle dogs; set-up: species or system male Beagle dogs; settings: Beagle dog
# Procedure: (§1) The test compounds were administrated to male Beagle dogs by intravenous (iv) and by gavage (po), respectively, the doses of the iv and po administration were respectively 0.5 mg/kg and 2.5 mg/kg, the solvent system for iv administration was 5% DMSO:5% solutol:90% physiological saline, and the solvent system for po administration was 0.5% MC. Blood was collected at multiple time points after iv administration and po administration for the PK study. Plasma samples were subjected to protein precipitation, followed by LC-MS/MS analysis. The mass spectrometer was API 5500, and the liquid chromatograph was a Waters ACQUITY I CLASS system; the chromatographic column was an Agela ASB C18 column (2.1 mm×50 mm, 1.9 μm); mobile phase A was water+0.1% formic acid, and phase B was acetonitrile; the flow rate was 0.4 mL/min, and the column temperature was 40° C. The ion source was an ESI source in a positive ion mode, and the scanning manner is multiple reaction monitoring (MRM).
# [5] = In vivo pharmacokinetics (PK) in cynomolgus macaques; set-up: species or system male cynomolgus macaques; settings: cynomolgus macaque
# Procedure: as §1, with “cynomolgus macaques” for “Beagle dogs”, “5500,” for “5500, and”
# [6] = system: CYP3A4; assay: CYP3A4 induction test (HepG2 C3A/pCYP3A4-Luc, C8 cells, luciferase); assay type: cell-based; settings: human, HepG2 C3A/pCYP3A4-Luc, C8 cells; CYP3A4 induction, 72 hours
# Procedure: (§2) A test tube of HepG2 C3A/pCYP3A4-Luc, C8 cells was taken out of a liquid nitrogen tank, the cells were recovered in a sterile water bath at 37° C.; and the test tube was gently shaken until ice completely melted. The recovered cells were transferred to a 15 mL sterile centrifuge tube, and 5-10 mL pre-heated basal cell culture medium at 37° C. was added; the cells were naturally settled for 2 minutes and centrifuged (1000 rpm) for 8 minutes. The supernatant was discarded, and the cells were re-suspended with 10 mL pre-heated cell culture medium. The cell suspension was transferred to a 10 cm cell-culture dish and incubated in a 5% CO2 incubator at 37° C. The original cell culture medium was replaced with a selective cell culture medium after 24 hours. The cells were digested after growing in 80%-90% of the culture dish, and then transferred to a 15 mL sterile centrifuge tube. Centrifugation was performed at 1000 rpm for 8 minutes, and the cells were collected. The supernatant was discarded, and the cells were re-suspended with 3 mL pre-heated complete medium. […] The supernatant was discarded, the cells were re-suspended and counted, and the suspension was diluted to 4×10^5 cells per mL. […] The fluorescence signal was measured on a plate reader. A concentration curve of the tested compounds was plotted by using software Prism 5, and the EC50 values were calculated.
# [7] = system: CYP450 isoform 3A4; assay: as above; assay type: cell-based; settings: at a concentration of 10 μM
# Procedure: as §2
# [8] = system: hepatitis B virus; assay: Mouse HBV model via tail vein hydrodynamic injection (HDI); assay type: in vivo, female BALB/c mice
# Procedure: The in vivo inhibitory effect on hepatitis B virus of the compound of the present invention was evaluated by employing a mouse HBV model via tail vein hydrodynamic injection (HDI).
# A suspension of compound 10-227 of the present invention was prepared with a 0.5% MC solution as the solvent. Female BALB/c mice were injected with pAAV2-HBV 1.3mer (type D) plasmid DNA via tail vein hydrodynamic injection, and then divided into the control group, test group 1 and test group 2 (5 mice in each group). Oral gavage administration was initiated one day later. The control group was given the 0.5% MC solution each time. The test groups 1 and 2 each time were given compound 10-227 (in the form of the suspension prepared above) at a dosage of 1 mg/kg and 3 mg/kg, respectively. The administration was continued for 7 days, twice a day, at an administration interval of 10 hours or 14 hours. Mouse plasma was collected at different time points (e.g., 1 day, 3 days, 5 days or 7 days after the HDI), and the HBV DNA levels in the plasma samples were detected by the RT-qPCR method.
# In addition, throughout the entire in vivo test, the weight and body condition of the mice were measured and observed everyday according to an IACUC (Institutional Animal Care and Use Committee) protocol.
# [9] = male, 0.5 mg/kg, iv, 0.50 mg/kg, plasma
# [10] = male, 2.5 mg/kg, po, 2.50 mg/kg, plasma
# [11] = male, cynomolgus monkey, 0.5 mg/kg, iv, 0.50 mg/kg, plasma
# [12] = male, cynomolgus monkey, 2.5 mg/kg, po, 2.50 mg/kg, plasma
# T1 sequence (Q12809 whole entry): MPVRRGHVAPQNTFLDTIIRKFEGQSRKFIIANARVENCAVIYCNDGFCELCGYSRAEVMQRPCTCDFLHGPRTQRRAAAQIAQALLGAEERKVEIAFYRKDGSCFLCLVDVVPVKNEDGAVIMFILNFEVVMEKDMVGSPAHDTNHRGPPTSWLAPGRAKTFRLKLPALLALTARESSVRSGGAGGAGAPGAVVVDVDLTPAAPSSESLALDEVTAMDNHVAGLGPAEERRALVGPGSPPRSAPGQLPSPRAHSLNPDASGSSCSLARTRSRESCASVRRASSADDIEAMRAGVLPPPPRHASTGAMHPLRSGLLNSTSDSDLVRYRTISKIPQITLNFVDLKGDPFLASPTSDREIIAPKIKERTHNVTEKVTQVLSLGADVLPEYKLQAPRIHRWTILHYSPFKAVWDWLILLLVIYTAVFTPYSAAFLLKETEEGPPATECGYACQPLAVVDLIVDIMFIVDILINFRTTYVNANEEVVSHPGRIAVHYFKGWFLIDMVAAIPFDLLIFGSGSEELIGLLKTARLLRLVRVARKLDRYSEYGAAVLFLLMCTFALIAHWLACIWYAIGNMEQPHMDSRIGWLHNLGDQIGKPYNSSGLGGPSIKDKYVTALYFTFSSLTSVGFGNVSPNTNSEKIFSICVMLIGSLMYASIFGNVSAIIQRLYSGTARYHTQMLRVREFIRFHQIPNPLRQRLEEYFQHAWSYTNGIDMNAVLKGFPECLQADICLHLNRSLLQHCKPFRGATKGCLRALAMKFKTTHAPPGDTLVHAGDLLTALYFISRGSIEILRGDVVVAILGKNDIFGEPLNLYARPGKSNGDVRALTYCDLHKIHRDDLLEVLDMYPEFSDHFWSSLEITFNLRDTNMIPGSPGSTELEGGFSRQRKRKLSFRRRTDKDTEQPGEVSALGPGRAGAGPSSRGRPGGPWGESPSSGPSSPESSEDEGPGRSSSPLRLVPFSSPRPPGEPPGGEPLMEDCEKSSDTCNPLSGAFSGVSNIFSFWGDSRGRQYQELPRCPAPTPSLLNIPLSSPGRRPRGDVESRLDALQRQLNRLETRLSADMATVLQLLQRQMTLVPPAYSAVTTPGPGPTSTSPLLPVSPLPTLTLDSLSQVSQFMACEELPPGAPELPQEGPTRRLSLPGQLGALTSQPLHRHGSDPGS
smiles,measurement,setting,value
"COC(=O)C1=C(CN2CCO[C@H](/C=C/C(=O)O)C2)NC(c2nccs2)=N[C@H]1c1ccc(F)cc1Cl [10-227 of Example 27, (E)-3-((R)-4-(((R)-6-(2-chloro-4-fluorophenyl)-5-(methoxycarbonyl)-2-(thiazol-2-yl)-3,6-dihydropyrimidin-4-yl)methyl)morpholin-2-yl)acrylic Acid]",EC50,[1],0.01 µM
same,CC50 at 4 days,[2],> 150 µM
same,IC50,[3],> 10 µM
same,amount of exposure in plasma relative to control compound 3,"[4]; by gavage, 2.50 mg/kg",about 14 times
same,blood-drug concentration relative to control compound 3,"[4]; by gavage, 2.50 mg/kg",about 6 times
same,AUC(0-inf),[4]; [9],8750 ng·h/mL
same,AUC(0-t),[4]; [9],8690 ng·h/mL
same,Cmax,[4]; [9],2310 ng/mL
same,AUC(0-inf),[4]; [10],33200 ng·h/mL
same,AUC(0-t),[4]; [10],32900 ng·h/mL
same,Cmax,[4]; [10],7200 ng/mL
same,bioavailability,"[4]; male, plasma, po, 2.5 mg/kg, by gavage, 2.50 mg/kg, read-out: bioavailability (F)",75.9%
same,amount of exposure in plasma relative to control compound 3,"[5]; by gavage, 2.50 mg/kg",about 21 times
same,blood-drug concentration relative to control compound 3,"[5]; by gavage, 2.50 mg/kg",about 33 times
same,AUC(0-inf),[5]; [11],2460 ng·h/mL
same,AUC(0-t),[5]; [11],2440 ng·h/mL
same,Cmax,[5]; [11],1670 ng/mL
same,AUC(0-inf),[5]; [12],4570 ng·h/mL
same,AUC(0-t),[5]; [12],4420 ng·h/mL
same,Cmax,[5]; [12],1070 ng/mL
same,bioavailability,"[5]; male, cynomolgus monkey, plasma, po, 2.5 mg/kg, by gavage, 2.50 mg/kg, read-out: bioavailability (F)",37.2%
same,EC50 at 72 h,[6],123 µM
same,inductive effect on CYP450 isoform 3A4 relative to rifampicin,[7],about 29%
same,HBV DNA level in plasma,"[8]; Test group 1, 1 mg/kg oral gavage twice a day, 1 day after HDI",1.95 ± 0.09 log (HBV DNA copies/μl)
same,HBV DNA level in plasma,"[8]; Test group 1, 1 mg/kg oral gavage twice a day, 3 days after HDI",2.28 ± 0.17 log (HBV DNA copies/μl)
same,HBV DNA level in plasma,"[8]; Test group 1, 1 mg/kg oral gavage twice a day, 5 days after HDI",2.77 ± 0.11 log (HBV DNA copies/μl)
same,HBV DNA level in plasma,"[8]; Test group 1, 1 mg/kg oral gavage twice a day, 7 days after HDI",2.77 ± 0.14 log (HBV DNA copies/μl)
same,HBV DNA level in plasma,"[8]; Test group 2, 3 mg/kg oral gavage twice a day, 1 day after HDI",1.99 ± 0.09 log (HBV DNA copies/μl)
same,HBV DNA level in plasma,"[8]; Test group 2, 3 mg/kg oral gavage twice a day, 3 days after HDI",1.95 ± 0.15 log (HBV DNA copies/μl)
same,HBV DNA level in plasma,"[8]; Test group 2, 3 mg/kg oral gavage twice a day, 5 days after HDI",1.57 ± 0.08 log (HBV DNA copies/μl)
same,HBV DNA level in plasma,"[8]; Test group 2, 3 mg/kg oral gavage twice a day, 7 days after HDI",1.42 ± 0.31 log (HBV DNA copies/μl)
same,variation in body weight,"[8]; mice, during 7 days of administration, 1 and 3 mg/kg",< 10%
